We go through 3 molecules from US20110281933A1, “METHODS AND COMPOSITIONS FOR THE MANAGEMENT OF CARDIOVASCULAR DISEASE WITH OLIGONUCLEOTIDES” (Saint Louis University, priority 2010, published 2011).

Series [1] relates to miR-33. Briefly: Bile secretion in vivo after anti-miR-33 (Example 6). Further details: species or system mice. The settings on record: 5 mpk i.v. The text has this: (A) Pooled bile recovered from the gallbladder of mice (n=5) injected with scrambled or anti-miR-33 oligonucleotides (5 mpk, i.v.) for 2 consecutive days. Mice were then kept for 7 days and fasted overnight before sample collection. (B) Levels of phosphatidylcholine (PC), cholesterol (chol) and bile acids present in pooled bile. (C) Relative expression of hepatic canalicular transporters in mice (n=5) following silencing of miR-33. Data are shown as mean±SD. *P<0.05 (unpaired T-test).
(§1) RNA and protein analysis. RNA was isolated from cells with Trizol reagent, using a slight modification of the manufacturer's protocol to preserve miRNAs. Briefly, following homogenization in 2 mL of Trizol, […] of chloroform and […] if 2 mol/L sodium acetate pH 4.2 were added before the separation of the organic and aqueous phases. The latter was combined with […] of acid phenol:chloroform:[…], and centrifuged again. RNAs in the aqueous phase was then precipitated with 3 mL of ethanol overnight at 4° C. After centrifugation, the RNA pellet was resuspended in water and stored at −80° C. until use. Alternatively, RNAs were isolated using the mirVana miRNA Isolation Kit (Ambion). cDNAs were generated from 5 μg of DNase1-treated RNA using Superscript III and Random hexamers (Invitrogen). Real-time PCR was done with Sybr green reagent (Roche), using a LightCycler 480 real-time PCR detection system (Roche). Values were normalized to GAPDH and calculated using the comparative CT method. Protein levels were determined by Western blot, using 50 ug total liver protein extract, and a 1:1,000 dilution of anti-ABCA1 antibody (Novus Biologicals), following standard protocols.
(§2) Murine Studies. Male C57Bl/6J mice were obtained from Jackson Laboratories, and maintained in a 12 hour/12 hour light/dark cycle with unlimited access to chow and water. In examples 1-5, animals (n=6-8 per group) were infused with adenoviral vectors (2×10^9 pfu) via tail vein injection. Blood was collected 5 days post-infusion, and total cholesterol and HDL-cholesterol were assayed enzymatically with the Cholesterol E and HDL-cholesterol E kits from Waco Chemicals. In example 6-10 animals (8-10 week old, n=6 per group, unless noted otherwise) were infused via tail vein injection with adenoviral vectors (2×10^9 pfu) or antisense oligonucleotides (5 mpk, 2 consecutive days). Where indicated, mice were fed a 21% fat, 1% cholesterol, 0.5% cholate diet (Purina 5A8E). Tissues and bile were collected following overnight fasting. RCT experiments were performed as described 28. Briefly, mice were injected i.v. with oligonucleotides (5 mpk) twice for 2 weeks, and then injected i.p. with 1-1.5×10^6 [^3H]-cholesterol-loaded bone marrow-derived macrophages. Blood samples were collected at 6, 24 and 48 h after the injection of the cells. Liver, bile and the feces produced during the last 48 h were collected and flash-frozen until used. The amount of radiolabeled sterols was determined by scintillation. All studies involving mice were approved by the IACUC at Saint Louis University.
Anti-miR-33 increases bile secretion in vivo. In an effort to understand the in vivo physiological importance of miR-33, the inventor injected mice with (5 mpk) of locked nucleic acid (LNA) scrambled sequence or LNA anti-miR-33 oligonucleotides 5-[…]-3′ (SEQ ID NO: 8) in saline (0.9% NaCl) via tail vein injection, at 5 mg/Kg (mpk) body weight. Mice were then kept with unlimited access to water and regular chow for a week. The amount of bile collected from the gallbladders of fasted mice receiving anti-miR-33 oligonucleotides was almost double of that collected from control mice (FIG. 6A). […] Next, the inventor tested the expression of several hepatocyte canalicular transporters that are known to mediate bile secretion.

The test system of series [2] is miR-33. Briefly: Silencing miR-33 rescues liver damage induced by simvastatin and cholate diet (Example 9). Type of series: in vivo, mice.
Text: Samples were collected after 7 days on the diet, or when mice appeared moribund. […] (B) Percentage of body weight, compared to the initial mass of each animal. Data are shown as mean±SD. (C) Macroscopic appearance of livers. (D) Liver to total body mass ratios. […] (E) Appearance of plasma. […] (G) Relative expression of hepatic canalicular transporters (upper panel) and other genes involved in bile acid and sterol homeostasis (bottom panel).
as §1
as §2, with “In examples 1-5, animals (n=6-8 per group) were infused with adenoviral vectors (2×10^9 pfu) via tail vein injection.” left out, “In example 6-10 animals (8-10 week old, n=6 per group, unless noted otherwise) were infused via tail vein injection with adenoviral vectors (2×10^9 pfu) or antisense oligonucleotides (5 mpk, 2 consecutive days). Where indicated, mice were fed a 21% fat, 1% cholesterol, 0.5% cholate diet (Purina 5A8E).” left out
Similarly bile and plasma were extracted in the presence of internal standards for each lipid class. Id.
The inventor next tested whether silencing miR-33 could rescue mammals with statin induced ERIC or cholestasis. […] Finally, the inventor studied the mRNA levels of selected hepatic genes (FIG. 10G).

For series [3], the system named is miR-33. Briefly: Reverse cholesterol transport with [3H]-cholesterol-loaded macrophages (Example 10). The following applies: 5 mpk. The format is in vivo, C57BL/6 mice. On the procedure: (A) Percentage of total injected dpm in the plasma of mice treated with scrambled or anti-miR-33 oligonucleotides (5 mpk, twice a week for 2 weeks), at 6, 24 at 48 h post-injection of [3H]-cholesterol-acLDL-loaded macrophages. *P<0.05 (unpaired T-test): **P<0.01 (unpaired T-test). (B) Percentage of total injected dpm in the liver of the same mice. (C) Percentage of total injected dpm in the be recovered from the gallbladder of the same mice. **P<0.01 (unpaired T-test). (D) Percentage of total injected dpm in the feces of the same mice. **P<0.01 (unpaired T-test).
as §2
ANTI-miR-33 Treatment Results In Increased Reverse Cholesterol Transport. Biliary secretion is an essential component of the reverse cholesterol transport (RCT) pathway (Nijstad at al., (2011) Gastroenterology 140, 1043-1051) by which extrahepatic cholesterol is shuttled to the liver, secreted into bile and excreted through feces (Khera and Rader, (2010) Curr Atheroscler Rep 12, 73-81; Rader et al., (2009) J Lipid Res 50 Suppl, S189-194; Wang et al., (2007) J Clin Invest 117, 2216-2224; Wang and Rader, (2007) J Biol Chem 280, 8742-8747). An additional, liver-independent ROT pathway has been proposed that removes circulating cholesterol through the intestine directly into feces (van der Veen et al., (2009) J Biol Chem 284, 19211-19219). The inventor reasoned that the changes in be secretion observed following manipulation of miR-33 levels will result in altered RCT. […] Analysis of the bile recovered from the gallbladder confirmed that bile secretion is increased after suppression of miR-33 expression. […] Finally, the recovery of labeled sterols in the feces increased ˜2-fold in these same mice, compared to control animals (FIG. 8D).

Series [4] concerns C57BL/6 mice on 1% cholesterol, 0.5% cholate diet. Kind of series: Simvastatin and cholate diet induced liver damage (Example 8). The format is in vivo. The following applies: 50 mpk simvastatin vs saline.
For series [5], the system named is miR-33. Briefly: miR-33 silencing in vivo: hepatic ABCA1 and plasma HDL-cholesterol (Example 4). Also on record: species or system C57BL/6 mice. The following applies: 5 mg/Kg/day for 3 consecutive days, vs scrambled. As to the method: as §1
Murine Studies. Male C57Bl/6J mice were obtained from Jackson Laboratories, and maintained in a 12 hour/12 hour light/dark cycle with unlimited access to chow and water. In examples 1-5, animals (n=6-8 per group) were infused with adenoviral vectors (2×10^9 pfu) via tail vein injection. […] In example 6-10 animals (8-10 week old, n=6 per group, unless noted otherwise) were infused via tail vein injection with adenoviral vectors (2×10^9 pfu) or antisense oligonucleotides (5 mpk, 2 consecutive days). […] The amount of radiolabeled sterols was determined by scintillation. […]
miR-33 modulation of physiological sterol homeostasis in vivo. To put these latter results in a physiological context, scrambled or anti-miR-33 oligonucleotides were injected into the tail veins of C57BL/6 mice (5 mg/Kg/day for 3 consecutive days), and plasma lipoprotein and cholesterol levels determined 12 days after the infusion.

Setting [6] is: 150 mpk simvastatin and cholate diet.
[7] abbreviates: mice that survived at the end of the experiment, vs scrambled.

For “5′-TGCAACTACAATGCA-3′ (LNA modifications, further chemistry not given here; listed as Homo sapiens) [LNA anti-miR-33 oligonucleotide, locked nucleic acid antisense oligonucleotide targeted to both miR-33 and miR-33 preRNA]”, in the series with miR-33 [1] (fasted mice after a week, vs control mice), the “amount of bile collected from the gallbladders” value is “almost double”. In addition, in the series on miR-33 [1] (vs scrambled), the “Abcb11 mRNA levels in liver” value was “significantly increased”; the “Atp8b1 mRNA levels in liver” value is reported as “significantly increased”; the “concentration of phosphatidylcholine in bile” value is recorded as “slightly elevated”; the “mRNA levels of other canalicular transporters (Abcg5, Abcg8, Abcb4) in liver” value is “remained unchanged”. Further, in the series on miR-33 [1] (vs scrambled), the “overall content of bile acids in pooled bile” value was “did not change” and the “overall content of cholesterol in pooled bile” value is recorded as “did not change”. The survival result in the series with miR-33 [2] (5 mpk i.v. two consecutive doses, then 150 mpk simvastatin and cholate diet, n=10) was “with one exception, all mice receiving anti-miR-33 oligonucleotides survived for at least a week”. Moreover, in the series on miR-33 [2] (setting [6]), the appearance of livers entry is recorded as “appeared normal” and the appearance of plasma result is recorded as “appeared clear”. Besides, the “hepatic free fatty acids, diglycerides, triglycerides and bile acids” value in the series on miR-33 [2] (150 mpk simvastatin and cholate diet, vs control animals) is listed as “marked decrease”. The “loss of body weight” value in the series with miR-33 [2] (150 mpk simvastatin and cholate diet, vs scrambled) is reported as “minimal loss”. In the series on miR-33 [2] (setting [7]), the “hepatic expression of Atp8b1” value was “increased expression” and the “increased hepatic expression of Abcb11 or any other canalicular transporter” value is given as “not”. For the same molecule, the liver/body mass ratio result in the series on miR-33 [2] (vs control mice that succumbed to the diet and statin treatment) is recorded as “significantly lower”. In addition, in the series with miR-33 [3], the “bile secretion (bile recovered from the gallbladder)” value is “is increased” and the “changes in body, liver or feces mass” value is recorded as “did not observe changes”. Moreover, the “amount of labeled cholesterol in circulation” value in the series on miR-33 [3] (6, 24, 48 h, vs control animals) was “increased”. In addition, the “amount of labeled sterols found in the liver” value in the series on miR-33 [3] (48 h) is on record as “did not statistically differ”. For the same molecule, the “contents of labeled biliary sterols (dpm/μL of bile), increase” value with miR-33 [3] (corrected for volume) is listed as 2 fold. Further, in the series with miR-33 [3] (feces of last 48 h, vs control animals), the “recovery of labeled sterols in the feces, increase” value was around 2 fold.
As to `CCC(C)(C)C(=O)O[C@H]1C[C@@H](C)C=C2C=C[C@H](C)[C@H](CC[C@@H]3C[C@@H](O)CC(=O)O3)[C@H]21` [simvastatin], the “reduction of hepatic Abcb11 levels” value in series [4] was around 40%.
On to “anti-miR-33 oligonucleotides: anti-miR-33 oligonucleotides injected in Example 4; sequence and chemistry not stated there (antisense TGCAACTACAATGCA; LNA-modified, pattern not given here; listed as Homo sapiens)”, for which the “increase in HDL-cholesterol” value in the series on miR-33 [5] (12 days after infusion) was 10-15%. Moreover, in the series with miR-33 [5] (tail vein), the “increase in hepatic ABCA1 mRNA levels” value amounted to 2 fold and the “increase in hepatic ABCA1 protein levels” value amounted to 2 fold.
